Consider 1 molecule from patent US20070086953A1, “Medicinal Aerosol Formulation Products With Improved Chemical Stability” (priority 2004, published 2007).

Data set [1] in a line: Stability study of TA 2005 HFA solution formulation in MDI cans, 40° C. and 75% relative humidity. The format is physicochemical. The note with it: three months, mean of two cans. The procedure:
A formulation for delivering a nominal dose of 1 μg per actuation of TA 2005 was prepared with the composition as follows:
The formulation (120 actuations/canister, overage of 30 actuations) was filled in aluminium canisters having the internal surface coated with Teflon (two stage pressure filling) and fitted with a metering valve having a 63 μl metering chamber provided with a butyl rubber gasket as described in WO 03/078538 (Bespak) cited above. In particular, the gaskets were made of a bromobutyl rubber made of approximately 97% isobutylene and approximately 3% isoprene and having been polymerised by using an aluminium chloride catalyst and by treating the thus obtained isoprene-isobutylene rubber with bromine.
The same formulation was filled in the same kind of cans fitted with valves provided with EPDM rubber gaskets.
A stability study was carried out storing the formulation in upright and inverted cans at 40° C. and 75% relative humidity.
The stability test in Examples 1 and 2 was carried out both in upright and inverted cans. In inverted position, the formulation is in direct contact with the valve materials for all the duration of the test in order to detect possible chemical interactions with the valve materials that may negatively affect the stability of the active ingredient in the formulation. In upright cans the interactions between the valve materials and the formulation are very limited and so also the possible negative effects on the stability of the active ingredient in the formulation may be unnoticed.

The conditions of data set [2]: 4 μg/63 μl, stored upright at 5° C., teflon-coated aluminium canisters, EPDM gaskets, after nine months; cited from earlier work.

As to `COc1ccc(C[C@@H](C)NC[C@H](O)c2ccc(O)c3[nH]c(=O)ccc23)cc1.Cl` [TA 2005, 8-hydroxy-5-[(1R)-1-hydroxy-2-[[(1R)-2-(4-methoxyphenyl)-1-methylethyl]amino]ethyl]-2(1H)-quinolinone hydrochloride], the “percent amount of TA 2005” value in data set [1] (inverted cans, EPDM rubber gaskets) is reported as 77%; in data set [1] (inverted cans, bromobutyl rubber gaskets), 97%; in data set [1] (upright cans, EPDM rubber gaskets), 98%; in data set [1] (upright cans, bromobutyl rubber gaskets), 98%. Further, in data set [2], the “TA 2005 assay” value was “higher than 95%”.
